Data reported in patent publication US8557830B2, “RAF kinase modulators and methods of use” (Amgen Inc., priority 2007, dated 2013).
Like-named read-outs stand apart in the source and are kept apart here.

Legend:
[1] = target: recombinant HuBraf V600E (Homo sapiens, UniProt P15056, V600E); assay: B-raf Homogenous Time Resolved Fluorescent (HTRF) kinase assay; assay type: biochemical; settings: human mutant B-raf V600E, substrate MEK1, 10 uM ATP, read-out: HTRF Enzyme assay Data IC50
Description: B-raf-Homogenous Time Resolved Fluorescent (HTRF) Kinase Assay
The final concentration of the kinase reaction buffer is 50 mM Tris-HCL pH 7.5, 10 mM MgCl2, 0.5% glucose, 0.5 mM DTT, 0.01% BSA. […] The detection reaction proceeds for one hour and is read on a RubyStar (BMG Labtech) counter. IC50s for the test compounds are generated using Excel-XLfit software.

[2] = target: T1, V600E mutant B-raf (Homo sapiens, UniProt P15056, V600E); assay: B-raf cell-based assay (ratio of phospho-ERK1/2 to total ERK1/2 in A375 cells); settings: A375 human melanoma cells, P-ERK/total ERK
T1 construct: A375 cells, a human melanoma cell line having the V600E mutant B-raf is used in this assay; endogenous in cells; host or cells: A375 human melanoma cells
Description: A cell-based assay was optimized to assay the ability of compounds to inhibit B-raf activity in a whole cell context. […] The cell-based assay quantifies the ratio of phospho-ERK1/2 to total ERK1/2 and can thereby assay the cellular inhibition of B-raf kinase activity. A375 cells are plated into 96 well plates and grown to confluence. The cells are then changed into starve media (DMEM/0.1% BSA) for 60 minutes. Compounds in DMSO dose curves are then diluted in starve media and added to cells. […] After a 60 minute incubation the cells are fixed for 20 minutes at RT in 4% formaldehyde with 0.1% Triton X-100, protease and phosphatase inhibitors in PBS. The cells are washed four times in PBS then blocked for 60 minutes using a one to one mix of Odyssey blocking buffer (Li-Cor Biosciences, Inc) and PBS. Primary antibodies (rabbit anti-phospho p42/p44 MAPK (P-ERK1/2) from Cell Signaling Technology and mouse anti-ERK2 from Santa Cruz Biotechnology) are diluted in blocking buffer, added to the cells and incubated overnight at 4° C. The cells are then washed four times in PBS/0.1% Tween-20. Secondary antibodies (anti-mouse IRDye 800CW from Rockland, Inc and anti-rabbit AlexaFlour680 from Molecular Probes) are diluted in blocking buffer/0.5% Tween and incubated on cells for 60 minutes. After 4 washes in PBS/0.1% Tween-20 the microplate is scanned on an Odyssey Infrared Imager (Li-Cor Bioscience) which can read the signal given by the two secondary antibodies on their respective channels. The ratio of P-ERK/total ERK is determined and IC50s generated using Excel-XLfit software.

Sequence of recombinant HuBraf V600E (P15056 whole entry V600E): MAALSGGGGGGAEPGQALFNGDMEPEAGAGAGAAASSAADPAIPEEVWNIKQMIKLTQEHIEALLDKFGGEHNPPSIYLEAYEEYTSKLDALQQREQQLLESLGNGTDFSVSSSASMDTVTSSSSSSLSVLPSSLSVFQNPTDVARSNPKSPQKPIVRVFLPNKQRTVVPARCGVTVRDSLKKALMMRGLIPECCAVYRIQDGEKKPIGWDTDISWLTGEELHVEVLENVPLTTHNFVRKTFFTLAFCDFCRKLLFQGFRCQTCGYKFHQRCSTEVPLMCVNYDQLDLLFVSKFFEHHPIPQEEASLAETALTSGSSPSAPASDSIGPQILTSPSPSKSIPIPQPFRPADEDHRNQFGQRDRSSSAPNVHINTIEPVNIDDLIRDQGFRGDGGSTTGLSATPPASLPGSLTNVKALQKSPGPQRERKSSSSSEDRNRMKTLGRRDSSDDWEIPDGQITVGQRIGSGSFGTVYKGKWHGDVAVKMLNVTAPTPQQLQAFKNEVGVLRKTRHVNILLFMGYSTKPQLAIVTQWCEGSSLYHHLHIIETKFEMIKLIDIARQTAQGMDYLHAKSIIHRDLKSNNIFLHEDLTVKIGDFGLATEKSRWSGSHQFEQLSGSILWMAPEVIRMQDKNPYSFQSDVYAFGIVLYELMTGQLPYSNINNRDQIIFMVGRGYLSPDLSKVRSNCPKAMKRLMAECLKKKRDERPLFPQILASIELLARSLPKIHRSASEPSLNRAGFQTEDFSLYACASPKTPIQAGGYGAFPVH
T1 sequence (P15056 whole entry V600E): as above

| IC50 ([1]; Table I) | IC50 ([2]; Table I) | IC50 ([1]; Table II) | IC50 ([2]; Table II) | Structure (SMILES) |
| --- | --- | --- | --- | --- |
| 13 nM | 25 nM |  |  | Cc1ccc2c(Nc3ccc4c(c3)OC(F)(F)O4)nccc2c1Nc1ncccc1-c1ncnc2[nH]ccc12 [Example 44, N-1-(2,2-difluoro-1,3-benzodioxol-5-yl)-6-methyl-N-5-(3-(7H-pyrrolo[2,3-d]pyrimidin-4-yl)-2-pyridinyl)-1,5-isoquinolinediamine] |
| 7 nM | 7 nM |  |  | Cc1ccc2c(Nc3ccc4c(C)cc(=O)[nH]c4c3)nccc2c1Nc1ncccc1-c1ncnc2[nH]ccc12 [Example 52, 4-methyl-7-((6-methyl-5-((3-(7H-pyrrolo[2,3-d]pyrimidin-4-yl)-2-pyridinyl)amino)-1-isoquinolinyl)amino)-2(1H)-quinolinone] |
| 15 nM | 25 nM |  |  | Cc1ccc2c(Nc3ccc4c(c3)C(F)(F)C(=O)N4)nccc2c1Nc1ncccc1-c1ncnc2[nH]ccc12 [Example 46, 3,3-difluoro-5-((6-methyl-5-((3-(7H-pyrrolo[2,3-d]pyrimidin-4-yl)-2-pyridinyl)amino)-1-isoquinolinyl)amino)-1,3-dihydro-2H-indol-2-one] |
| 10 nM | 233 nM |  |  | Cc1ccc2c(Nc3ccc(C#N)cc3)ncnc2c1Nc1ncccc1-c1ncnc2[nH]ccc12 [Example 60, 4-((7-methyl-8-((3-(7H-pyrrolo[2,3-d]pyrimidin-4-yl)-2-pyridinyl)amino)-4-quinazolinyl)amino)benzonitrile] |
| 205 nM | 99 nM |  |  | Cc1ccc2c(Nc3ccc4c(c3)C(F)(F)OC(F)(F)O4)nccc2c1Nc1ncccc1-c1ncnc2[nH]ccc12 [Example 54, 6-methyl-N-5-(3-(7H-pyrrolo[2,3-d]pyrimidin-4-yl)-2-pyridinyl)-N-1-(2,2,4,4-tetrafluoro-4H-1,3-benzodioxin-6-yl)-1,5-isoquinolinediamine] |
| 3 nM | 5 nM |  |  | Cc1ccc2c(Nc3ccc(Cl)cc3)nccc2c1Nc1ncccc1-c1ncnc2[nH]ccc12 [Example 42, N-1-(4-chlorophenyl)-6-methyl-N-5-(3-(7H-pyrrolo[2,3-d]pyrimidin-4-yl)-2-pyridinyl)-1,5-isoquinolinediamine] |
| 8 nM | 15 nM |  |  | Cc1ccc2c(Nc3ccc4c(c3)C(F)(F)C(=O)N4C)nccc2c1Nc1ncccc1-c1ncnc2[nH]ccc12 [Example 45, 3,3-difluoro-1-methyl-5-((6-methyl-5-((3-(7H-pyrrolo[2,3-d]pyrimidin-4-yl)-2-pyridinyl)amino)-1-isoquinolinyl)amino)-1,3-dihydro-2H-indol-2-one] |
| 47 nM | 52 nM |  |  | Cc1ccc2c(Nc3ccc(C(F)(F)F)cc3)nccc2c1Nc1ncccc1-c1ncnc2[nH]ccc12 [Example 53, 6-methyl-N-5-(3-(7H-pyrrolo[2,3-d]pyrimidin-4-yl)-2-pyridinyl)-N-1-(4-(trifluoromethyl)phenyl)-1,5-isoquinolinediamine] |
|  |  | 3 nM | 28 nM | C#Cc1cccc(Nc2ncnc3c(Nc4ncccc4-c4ncnc5[nH]cnc45)c(C)ccc23)c1 [Example 75, N-4-(3-ethynylphenyl)-7-methyl-N-8-(3-(9H-purin-6-yl)-2-pyridinyl)-4,8-quinazolinediamine] |
|  |  | 9 nM | 5 nM | Cc1ccc2c(Nc3ccc(OC(F)F)cc3)ncnc2c1Nc1ncccc1-c1ncnc2[nH]cnc12 [Example 76, N-4-(4-(difluoromethoxy)phenyl)-7-methyl-N-8-(3-(9H-purin-6-yl)-2-pyridinyl)-4,8-quinazolinediamine] |
|  |  | 4 nM | 12 nM | Cc1ccc2c(Nc3ccc(C#N)cc3)nccc2c1Nc1ncccc1-c1ncnc2[nH]ncc12 [Example 71, 4-((6-methyl-5-((3-(1H-pyrazolo[3,4-d]pyrimidin-4-yl)-2-pyridinyl)amino)-1-isoquinolinyl)amino)benzonitrile] |
| 20 nM | 282 nM |  |  | Cc1ccc2c(Nc3ccc(Cl)cc3)nccc2c1Nc1ncccc1-c1ncnc2cc[nH]c12 [Example 62, N-1-(4-chlorophenyl)-6-methyl-N-5-(3-(5H-pyrrolo[3,2-d]pyrimidin-4-yl)-2-pyridinyl)-1,5-isoquinolinediamine] |
| 8 nM | 8 nM |  |  | Cc1ccc2c(Nc3cccc(C(F)(F)F)c3)nccc2c1Nc1ncccc1-c1ncnc2[nH]ncc12 [Example 65, 6-methyl-N-5-(3-(1H-pyrazolo[3,4-d]pyrimidin-4-yl)-2-pyridinyl)-N-1-(3-(trifluoromethyl)phenyl)-1,5-isoquinolinediamine] |
